Tests used:
Assay type in all cases: physicochemical
[1] = Moisture sorption/desorption isotherm; details: over the range of 0-95% RH, 25° C.
Excerpt: It is most commonly used to study to study desolvation processes and quantatively determine the total volatile content of a solid. DSC is a technique that is often used to screen compounds for polymorphism because the temperatures(s) at which a physical change in a material occurs is usually characteristic of that material. Moisture sorption isotherms provide evaluation of the degree of hydroscopicity associated with a given material and characterization of non-hydrates and hydrates. Lastly, XRD is a technique that detects long-range order in a crystalline material. Moisture Sorption Isotherms were generated using a VTI SGA-100 flow instrument. The samples were analyzed at 25° C. from 0-95% relative humidity (RH) for adsorption and from 95-5% RH for desorption in steps of 5% RH. The adsorption and desorption isotherms were generated as a graph of the % weight change vs. % RH.

Aqueous solubility = experiment: Aqueous solubility
[2] = Variable temperature X-ray powder diffraction (crystal form stability); details: up to 125° C., increments of 25° C.
Method: Variable temperature X-ray powder diffraction patterns were obtained on a Siemens D5000 X-ray powder diffractometer which was equipped with a CuKα source (λ=1.54056) operated at 50 kV and 40 mA with a scintillation detector and nickel filter. The powder was packed into a top-loading, recessed temperature controlled holder and a smooth surface was obtained for diffraction. The sample was scanned from 2 to 35° 2θ at 2.5 seconds per step size of 0.04° beginning at 25° C. after an equilibration time of 5 minutes. Subsequent scans were obtained at increasing temperature increments of 25° C. to a maximum of 125° C.

COc1ccc(-c2sc3cc(O)ccc3c2Oc2ccc(OCCN3CCCCC3)cc2)cc1.Cl [F-V, 6-hydroxy-3-(4-[2-(piperidin-1-yl)ethoxy]phenoxy)-2-(4-methoxyphenyl)benzo[b]thiophene hydrochloride]
weight increase in moisture sorption/desorption isotherm [1]: 0.11% | higher aqueous solubility relative to F-III (Aqueous solubility): ~10% | change in the diffraction pattern on heating [2]: no significant change
